Experimental data published in ChEMBL document CHEMBL1201862, “PubChem BioAssay data set” (2004).
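Results reflect a 48-hour exposure of cells in 96-well plates to compound at five concentrations. The concentration for 50% growth inhibition is given as GI50.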 Activity calls are given as the source filed them. Cut-off read from the data, not from the text of the source: active = GI50 up to about 1.1 µM and inactive = higher.

Assays:
Assay in all cases: DTP human tumour cell line panel, 48 h
COLO 205 = system: COLO 205
NCI/ADR-RES = system: NCI/ADR-RES
DU-145 = system: DU-145
CCRF-CEM = system: CCRF-CEM
TK-10 = system: TK-10
PC-3 = system: PC-3
SF-539 = system: SF-539
SNB-75 = system: SNB-75
786-0 = system: 786-0
HT-29 = system: HT-29
A498 = system: A498
OVCAR-8 = system: OVCAR-8
SF-295 = system: SF-295
MDA-MB-231 = system: MDA-MB-231
HOP-62 = system: HOP-62
NCI-H522 = system: NCI-H522
OVCAR-3 = system: OVCAR-3
SK-MEL-2 = system: SK-MEL-2
MOLT-4 = system: MOLT-4
MCF7 = system: MCF7

SMILES | GI50 (COLO 205) | GI50 (NCI/ADR-RES) | GI50 (DU-145) | GI50 (CCRF-CEM) | GI50 (TK-10) | GI50 (PC-3) | GI50 (SF-539) | GI50 (SNB-75) | GI50 (786-0) | GI50 (HT-29) | GI50 (A498) | GI50 (OVCAR-8) | GI50 (SF-295) | GI50 (MDA-MB-231) | GI50 (HOP-62) | GI50 (NCI-H522) | GI50 (OVCAR-3) | GI50 (SK-MEL-2) | GI50 (MOLT-4) | GI50 (MCF7)
CC(C)O/N=C/c1cc(NC(=S)OC(C)C)ccc1Cl | 56.8 µM (inactive) | 35.5 µM (inactive) | > 65.5 µM (inactive) | 13.5 µM (inactive) | > 58.6 µM (inactive) | 36.8 µM (inactive) | 24.8 µM (inactive) | 18.5 µM (inactive) | 33.3 µM (inactive) | 23.1 µM (inactive) | 44.7 µM (inactive) | 36.9 µM (inactive) | 25.2 µM (inactive) | 19.1 µM (inactive) | 37.8 µM (inactive) | 26 µM (inactive) | 32.5 µM (inactive) | 26 µM (inactive) | 15.8 µM (inactive) | 23.5 µM (inactive)
O=C(O)c1nc2nc(Cl)c(Cl)nc2[nH]1 | > 100 µM (inactive) | > 100 µM (inactive) | > 100 µM (inactive) | > 100 µM (inactive) | > 100 µM (inactive) | > 100 µM (inactive) | > 100 µM (inactive) | > 100 µM (inactive) | > 100 µM (inactive) | > 100 µM (inactive) | > 100 µM (inactive) | > 100 µM (inactive) | > 100 µM (inactive) | > 100 µM (inactive) | > 100 µM (inactive) | > 100 µM (inactive) | > 100 µM (inactive) | > 100 µM (inactive) | > 100 µM (inactive) | > 100 µM (inactive)
CCCCOC(=O)NC(Nc1cccc(C(F)(F)F)c1)(C(F)(F)F)C(F)(F)F | 45.7 µM (inactive) | 45.3 µM (inactive) | > 100 µM (inactive) | 29.6 µM (inactive) | 71.1 µM (inactive) | 68.7 µM (inactive) | 73.6 µM (inactive) | 33.6 µM (inactive) | 84.1 µM (inactive) | 50.8 µM (inactive) | > 100 µM (inactive) | 57.4 µM (inactive) | 26.6 µM (inactive) | > 100 µM (inactive) | > 100 µM (inactive) | 56.4 µM (inactive) | 56 µM (inactive) | 35.5 µM (inactive) | 34.8 µM (inactive) | 59.4 µM (inactive)
COc1ccccc1C(O)[C@@H]1C[C@@H]2[C@H]3CC[C@@](C)([C@@H]2O1)C3(C)C (stereo not given in full) | 19.1 µM (inactive) | 17.5 µM (inactive) | 22.1 µM (inactive) | 20.8 µM (inactive) | 21.8 µM (inactive) | 20.7 µM (inactive) | 6.53 µM (inactive) | 16.9 µM (inactive) | 17.8 µM (inactive) | 19.4 µM (inactive) | 15.4 µM (inactive) | 18.2 µM (inactive) | 18.4 µM (inactive) | 17.3 µM (inactive) | 18.7 µM (inactive) | 17.4 µM (inactive) | 17.1 µM (inactive) | 18.1 µM (inactive) | 15.4 µM (inactive) | 19 µM (inactive)
Cc1ccc(NC(c2ccccc2)P(=O)(c2ccccc2)c2ccccc2)cc1 (stereo not given) | > 100 µM (inactive) | > 100 µM (inactive) | > 100 µM (inactive) | > 10 µM (inactive) | > 100 µM (inactive) | > 100 µM (inactive) | > 100 µM (inactive) | 13.7 µM (inactive) | 95.1 µM (inactive) | > 100 µM (inactive) | > 100 µM (inactive) | > 100 µM (inactive) | 29.9 µM (inactive) | > 100 µM (inactive) | 95.5 µM (inactive) | > 100 µM (inactive) | > 100 µM (inactive) | 39.6 µM (inactive) | > 100 µM (inactive) | > 100 µM (inactive)
N#CC(NNC(=O)Cc1ccccc1)c1ccccc1O (stereo not given) | 12.1 µM (inactive) | 3.93 µM (inactive) | 20.8 µM (inactive) | 4 µM (inactive) | 24.2 µM (inactive) | 5.79 µM (inactive) | 16.4 µM (inactive) | 21.3 µM (inactive) | 8.75 µM (inactive) | 9.18 µM (inactive) | > 48.9 µM (inactive) | 12.3 µM (inactive) | 9.68 µM (inactive) | 8.2 µM (inactive) | 15.8 µM (inactive) | 4.88 µM (inactive) | 3.75 µM (inactive) | 30.3 µM (inactive) | 3.72 µM (inactive) | 10.2 µM (inactive)
CN(C)CCNC1=CC(=O)c2c(O)ccc(O)c2C1=O | 1.9 µM (inactive) | 2.58 µM (inactive) | 13.8 µM (inactive) | 3.94 µM (inactive) | 14.4 µM (inactive) | 5.77 µM (inactive) | 7.1 µM (inactive) | 17.1 µM (inactive) | 4.7 µM (inactive) | 2.59 µM (inactive) | 14.8 µM (inactive) | 4.39 µM (inactive) | 11.4 µM (inactive) | 11.7 µM (inactive) | 16.3 µM (inactive) | 3.73 µM (inactive) | 2.33 µM (inactive) | 8.95 µM (inactive) | 5.14 µM (inactive) | 2.49 µM (inactive)
NCS(=O)(=O)O | > 100 µM (inactive) | > 100 µM (inactive) | > 100 µM (inactive) | > 100 µM (inactive) | > 100 µM (inactive) | > 100 µM (inactive) | 0.0361 µM (active) | > 100 µM (inactive) | > 100 µM (inactive) | > 100 µM (inactive) | > 100 µM (inactive) | > 100 µM (inactive) | > 100 µM (inactive) | > 100 µM (inactive) | > 100 µM (inactive) | > 100 µM (inactive) | > 100 µM (inactive) | > 100 µM (inactive) | > 100 µM (inactive) | > 100 µM (inactive)
O=C(c1ccc([N+](=O)[O-])cc1)C(Br)C(Br)c1ccnc2ccccc12 (stereo not given) | 13 µM (inactive) | 8.45 µM (inactive) | 11.8 µM (inactive) | 0.352 µM (active) | 4.58 µM (inactive) | 7.29 µM (inactive) | 6.4 µM (inactive) | 4.06 µM (inactive) | 2.54 µM (inactive) | 2.9 µM (inactive) | 3.99 µM (inactive) | 9.08 µM (inactive) | 9.06 µM (inactive) | 13.1 µM (inactive) | 13.9 µM (inactive) | 1.86 µM (inactive) | 6.32 µM (inactive) | 12.6 µM (inactive) | 2.94 µM (inactive) | 2.39 µM (inactive)
